# Reference: patent US11980774B2, “Illumination devices and related methods for phototherapeutic light treatments in the presence of vitamins” (priority 2021, dated 2024)
# System: New York variant of SARS-CoV-2 (SARS-CoV-2 NY)
# Assay: 425 nm light inhibition of SARS-CoV-2 NY in the presence of riboflavin in artificial saliva, virus titer
# Format: cell-based
# Conditions: FIG. 2
structure (smiles),measurement,setting,value
Cc1cc2nc3c(=O)[nH]c(=O)nc-3n(C[C@H](O)[C@H](O)[C@H](O)CO)c2cc1C [riboflavin],change in SARS-CoV-2 NY viral load compared with the 0 μM RFN sample,"10 μM RFN in artificial saliva, 425 nm light, beginning with doses as low as 3 J/cm^2",notable decreases
same,viral load of SARS-CoV-2 NY after treatment,"10 μM RFN, 425 nm light 15 J/cm^2",below measurement background levels
